Measured values published in US20140296143A1, “Angiotensin-(1-7) As A Chemoprevention Agent” (Wake Forest Innovations, priority 2008, published 2014).

Key:
[1] = system: chorioallantoic membrane (CAM); assay: Chorioallantoic membrane (CAM) assay of neovascularization; assay type: in vivo, chicken
Experimental: Chicken eggs were incubated for four days in constant humidity at 37° C. […] The extent of neovascularization was quantified by counting branch points, as illustrated in FIG. 14 showing about a 50% reduction in branch points. No difference was found in the number of branch points between the two groups prior to treatment with Ang-(1-7).

[2] = system: SK-LU-1 lung cancer cells; assay type: cell-based, human
Experimental: Cells were grown to subconfluence in either 24-well cluster plates or 100 mm dishes and made quiescent by treatment for 48 h with serum-depleted growth media, prior to the experiments outlined below to measure cell growth (^3H-thymidine incorporation), cell signaling or apoptosis.
Subsequently, the cell monolayer was washed with cold phosphate-buffered saline (PBS; 50 mM NaPO4, 120 mM NaCl, pH=7.2). The adherent cells were precipitated with cold 10% TCA (4° C. for 30 min) and dissolved in 0.2% SDS in 0.1 N NaOH.
During an additional 4 h, cell monolayers were pulsed with ^3H-thymidine (0.25 μCi/well) and harvested.

[3] = system: A549 human lung tumor xenografts; assay: A549 human lung tumor xenograft in athymic mice, subcutaneous injection; assay type: in vivo, mouse
Experimental: For reverse-transcriptase real-time PCR, RNA was isolated from cells or tissue, using the TRIzol reagent (GIBCO Invitrogen Corp., Carlsbad, Calif.), as directed by the manufacturer. The RNA concentration and integrity were assessed using an Agilent 2100 Bioanalyzer with an RNA 6000 nano LabChip (Agilent Technologies, Palo Alto, Calif.). Approximately 1 μg of total RNA was reverse transcribed using avian myeloblastosis virus reverse transcriptase (RT) in a 20 μL mixture containing deoxyribonucleotides, random hexamers and RNase inhibitor in RT buffer. Heating the RT reaction product at 95° C. terminated the reaction. For real-time polymerase chain reaction (PCR), 2 μL of the resultant cDNA was added to TaqMan Universal PCR Master Mix (Applied Biosystems, Foster City, Calif.) with a gene-specific primer/probe set (Applied Biosystems, Foster City, Calif.) and amplification was performed on an ABI 7000 Sequence Detection System. The mixtures were heated at 50° C. for 2 min, at 95° C. for 10 min followed by 40 cycles at 95° C. for 15 sec and 60° C. for 1 min. All reactions were performed in triplicate and 18S ribosomal RNA, amplified using the TaqMan Ribosomal RNA Control Kit (Applied Biosystems), served as an internal control. The results were quantified as Ct values, where Ct is defined as the threshold cycle of PCR at which amplified product is first detected, and expressed as the ratio of target/control (Relative Gene Expression).
Male or female athymic mice (15-20 g, 2-4 weeks of age, Charles River Laboratory, Wilmington, Mass.) were housed in cages with HEPA-filtered air (12-hour light/dark cycle) and ad libitum access to food and autoclaved water. All procedures complied with the policies of the Wake Forest University Animal Care and Use Committee. Mice were inoculated subcutaneously in the lower left flank with approximately 1.9×10^6 A549 lung cancer cells or ZR-75-1 breast cancer cells suspended in 200 μL of cold Matrigel (BD Biosciences, Bedford, Mass.). […] The mice were anesthetized by inhalation with 1.5% isoflurane. […] The minipumps also contained heparin (25 U/mL) to maintain patency of the catheter. On day 28 of the infusion, the animals were anesthetized with halothane and sacrificed by decapitation. Alternatively, the mice received daily subcutaneous injections of Ang-(1-7) in saline or saline alone.
The mice were injected daily, for 5 days, followed by a 2 day rest period, and the injections were continued for 7 cycles. Tumor size was measured every 3 days during the treatment period, using a caliper, and tumor volume was calculated using the formula for a semi-ellipsoid. The tumors continued to grow in the mice treated with saline (FIG. 33). […] It should be noted that a number of the saline control mice were sacrificed after 1 month due to excessive tumor size. Only a single control mouse remained in the study by the 40th day, while the Ang-(1-7)-treated mice thrived.

VEGF mRNA = VEGF mRNA in A549 cells by RT-PCR; assay type: cell-based, human; details: 100 nM, 2-4 hours
Experimental: RNA, isolated from cells or tissue, using the TRIzol reagent (GIBCO Invitrogen, Carlsbad, Calif.), was subjected to reverse transcriptase/real-time polymerase chain reaction as previously described (Tallant et al., Am. J. Physiol. Heart Circ. Physiol., 2005, 289:1560-1566). All reactions were performed in triplicate and 18S ribosomal RNA, amplified using the TaqMan Ribosomal RNA Control Kit (Applied Biosystems), served as an internal control. The results were quantified as Ct values, where Ct is defined as the threshold cycle of PCR at which amplified product is first detected, and defined as relative gene expression (the ratio of target/control). […] The RNA concentration was quantified by UV spectroscopy and any degradation assessed by ethidium bromide staining intensity of 28S and 18S ribosomal RNA following agarose gel electrophoresis. […] Following PCR, the amplification products were separated by polyacrylamide gel electrophoresis, visualized by autoradiography, and analyzed using the MCID imaging system.
For reverse-transcriptase real-time PCR, RNA was isolated from cells or tissue, using the TRIzol reagent (GIBCO Invitrogen Corp., Carlsbad, Calif.), as directed by the manufacturer. The RNA concentration and integrity were assessed using an Agilent 2100 Bioanalyzer with an RNA 6000 nano LabChip (Agilent Technologies, Palo Alto, Calif.). […]

AT1 angiotensin receptor = details: cited from earlier work
[4] = 1000 μg/kg/day, radioimmunoassay
[5] = subcutaneous 1000 μg/kg/day, versus saline

With `CC[C@H](C)[C@H](NC(=O)[C@H](Cc1ccc(O)cc1)NC(=O)[C@@H](NC(=O)[C@H](CCCNC(=N)N)NC(=O)[C@@H](N)CC(=O)O)C(C)C)C(=O)N[C@@H](Cc1c[nH]cn1)C(=O)N1CCC[C@H]1C(=O)O` [Ang-(1-7), Asp-Arg-Val-Tyr-Ile-His-Pro] the “neovascularization, branch points” value ([1]; 10 nM, 48 hour incubation, n=4, control 58.0±3.6 (n=3)) was 29.5±3.6 branch points, the “reduction in branch points” value ([1]; 100 nM, 2-day incubation, FIG. 14) was roughly 50% and the “^3H-thymidine incorporation over time of treatment” value ([2]; SK-LU-1, 1% FBS, daily addition of 100 nM) was “progressively reduced”. The “effect on serum-stimulated ^3H-thymidine incorporation” value ([2]; SK-LU-1, peptide at 1 or 100 nM) was “reduced”, the prostacyclin synthase ([3]; 1000 μg/kg/day) was “not altered” and the PGE2 in tumors [3, 4] was “reduced”. For the same compound, the PGI2 in tumors [3, 4] was “increased”, the tumor growth ([3]; subcutaneous 1000 μg/kg/day, 5 days on/2 days rest, 7 cycles) was “significantly reduced” and the COX-2 in tumors [3, 5] was “marked down-regulation”. The “down-regulation in VEGF mRNA in tumor tissue” value [3, 5] was “about 40%”, the “reduction in prostaglandin E2 synthase (PGES) mRNA in tumors” value [3, 5] was “greater than 50%” and the “optimal reduction of VEGF mRNA” value (VEGF mRNA) was “greater than 50%”. For the same compound, the “IC50 at the AT1 angiotensin receptor” value (AT1 angiotensin receptor; Tallant et al., 1999) was “micromolar range” and the “competition at the AT1 receptor” value (AT1 angiotensin receptor; literature) was “poor competitor”.
